According to patent US12577241B2, “Polycyclic pyridopyrazine derivative” (Shionogi & Co., Ltd., priority 2019, dated 2026):

Each molecule was assayed on HIV (assay: Test Example 1B: Anti-HIV activity (MT-4 cells, MTT)). Settings: Human immunodeficiency virus 1, MT4, 96 h, 4 days culture, MTT absorbance, read-out: EC50 (50% HIV inhibitory concentration).
Assay type: cell-based
Method: Test Example 1B: Anti-HIV Activity
Serial dilutions of a test sample were prepared in a 96-well microplate (50 μL/well). 2.5×10^5 cells/mL of a MT-4 cell suspension was dispensed at 100 μL/well to the plate containing the test sample. Then, an HIV virus solution was dispensed at 50 μL/well. The plate was mixed with a plate mixer and cultured for 4 days in a CO2 incubator. An MTT (3-(4,5-dimethylthiazol-2-yl)-2,5-diphenyltetrazolium bromide) solution was dispensed at 30 μL/well. The plate was reacted for 1 hour in a CO2 incubator. 150 μL of the supernatant was removed from each well so as not to take up the cells. 150 μL of a cell lysis solution was added to each well and well mixed with a plate mixer until the cells were completely lysed. The absorbance of the mixed plate was measured at two wavelengths of 560 nm and 690 nm using a microplate reader. A 50% HIV inhibitory concentration (EC50) was determined from a concentration-dependent curve using the following 4 parameter logistic curve fitting model. y=A+((B−A)/(1+(C/x)^D)) • A=minimum rate of inhibition (negative control, 0%) • B=maximum rate of inhibition (positive control, 100%) • C=compound concentration at an inflection point • D=slope coefficient • x=compound concentration • y=rate of inhibition (%) (Results)

Row | EC50 | SMILES
1 | 6.2 nM | CCN1C(=O)c2c(O)c(=O)c(C(=O)NCc3cccc(Cl)c3F)cn2[C@H]2[C@@H]1[C@@H]1CC[C@H]2O1 [Compound I-043]
2 | 3.6 nM | CCN1C(=O)c2c(O)c(=O)c(C(=O)NCc3ccc(F)cc3F)cn2[C@H]2[C@@H]1CCC2(F)F [Compound I-037]
3 | 12 nM | CCN1C(=O)c2c(O)c(=O)c(C(=O)NCc3nccc(Cl)c3F)cn2[C@H]2Cc3ccccc3[C@H]21 [Compound I-034]
4 | 12 nM | CCN1C(=O)c2c(O)c(=O)c(C(=O)NCc3nccc(Cl)c3F)cn2[C@@H]2CC(F)(F)CC[C@@H]21 [Compound I-041]
5 | 7 nM | CCN1C(=O)c2c(O)c(=O)c(C(=O)NCc3cccc(Cl)c3F)cn2[C@@H]2[C@H]1[C@H]1CC[C@@H]2O1 [Compound I-044]
6 | 7.9 nM | CCN1C(=O)c2c(O)c(=O)c(C(=O)NCc3nccc(Cl)c3F)cn2[C@H]2CC(F)(F)CC[C@H]21 [Compound I-042]
7 | 4.3 nM | CCN1C(=O)c2c(O)c(=O)c(C(=O)NCc3ccc(F)cc3F)cn2[C@@H]2[C@H]1CCC2(F)F [Compound I-038]
8 | 5.4 nM | CCN1C(=O)c2c(O)c(=O)c(C(=O)NCc3ccc(F)cc3F)cn2[C@H]2Cc3ccccc3[C@H]21 [Compound I-035]
9 | 7.1 nM | CCN1C(=O)c2c(O)c(=O)c(C(=O)NCc3cccc(Cl)c3F)cn2[C@H]2CCC3(CC3)C[C@H]21 [Compound I-036]
10 | 13 nM | CCN1C(=O)c2c(O)c(=O)c(C(=O)NCc3nccc(Cl)c3F)cn2[C@@H]2[C@H]1CCC2(F)F [Compound I-040]
11 | 9.7 nM | CCN1C(=O)c2c(O)c(=O)c(C(=O)NCc3cccc(Cl)c3F)cn2[C@H]2Cc3ccccc3[C@H]21 [Compound I-033]
12 | 9.8 nM | CCN1C(=O)c2c(O)c(=O)c(C(=O)NCc3nccc(Cl)c3F)cn2[C@H]2[C@@H]1CCC2(F)F [Compound I-039]

These molecules were tested on HIV (assay: Test Example 1: Anti-HIV activity (MT-4 cells, CellTiter-Glo)). Settings: 4 days culture, CellTiter-Glo luminescence, read-out: EC50 (50% HIV inhibitory concentration).
Assay type: cell-based
Method: Test Example 1: Anti-HIV Activity
Serial dilutions of a test sample were prepared in a 384-well microplate by a dispensing machine. 6.25×10^4 cells/mL of a MT-4 cell suspension was dispensed at 20 μL/well to the plate containing the test sample. Then, an HIV virus solution was dispensed at 20 μL/well. The plate was mixed with a plate mixer and cultured for 4 days in a CO2 incubator. On day 4 of culture, CellTiter-Glo or CellTiter-Glo 2.0 was dispensed at 20 μL/well. The plate was reacted while being stirred with the plate mixer at room temperature for about 15 minutes. The amount of luminescence of the plate after the reaction was measured with a microplate reader. A 50% HIV inhibitory concentration (EC50) was determined from a concentration-dependent curve using the following 4 parameter logistic curve fitting model. y=A+((B−A)/(1+((C/x)^D))) • A=minimum rate of inhibition (negative control, 0%) • B=maximum rate of inhibition (positive control, 100%) • C=compound concentration at an inflection point • D=slope coefficient • x=compound concentration • y=rate of inhibition (%) (Results)

Row | SMILES | EC50
13 | CCN1C(=O)c2c(O)c(=O)c(C(=O)NCc3cccc(Cl)c3F)cn2[C@H]2[C@H](COC)CC[C@H]21 [Compound I-013] | 2.5 nM
14 | CCN1C(=O)c2c(O)c(=O)c(C(=O)NCc3cccc(Cl)c3F)cn2[C@H]2CC(F)(F)C[C@H]21 [Compound I-001] | 1.4 nM

Same assay, conditions: Human immunodeficiency virus 1, MT4, 96 h, 4 days culture, CellTiter-Glo luminescence, read-out: EC50 (50% HIV inhibitory concentration)

Row | EC50 | SMILES
15 | 1.2 nM | CN1C(=O)c2c(O)c(=O)c(C(=O)NCc3cccc(Cl)c3F)cn2[C@H]2CCCC[C@H]21 [Compound I-028]
16 | 2.2 nM | CCN1C(=O)c2c(O)c(=O)c(C(=O)NCc3cccc(Cl)c3F)cn2[C@H]2CCC[C@H]21 [Compound I-029]
17 | 0.7 nM | CN1C(=O)c2c(O)c(=O)c(C(=O)NCc3c(F)cc(F)cc3F)cn2[C@H]2CCCC[C@H]21 [Compound I-027]
18 | 4.6 nM | CCN1C(=O)c2c(O)c(=O)c(-c3nnc(Cc4ccc(F)cc4F)s3)cn2[C@H]2CCC(F)(F)C[C@H]21 [Compound I-023]
19 | 9 nM | CCN1C(=O)c2c(O)c(=O)c(C(=O)NCc3cccc(Cl)c3F)cn2[C@H]2CCC(F)(F)C[C@H]21 [Compound I-011]
20 | 0.93 nM | CCN1C(=O)c2c(O)c(=O)c(C(=O)NCc3c(F)cc(F)cc3F)cn2[C@H]2CCC(F)(F)C[C@H]21 [Compound I-012]
21 | 0.52 nM | CCN1C(=O)c2c(O)c(=O)c(C(=O)NCc3c(F)cc(F)cc3F)cn2[C@H]2CCCC(F)(F)[C@H]21 [Compound I-008]
22 | 2.3 nM | CN1C(=O)c2c(O)c(=O)c(-c3nnc(Cc4ccc(F)cc4F)s3)cn2[C@H]2CCCC[C@H]21 [Compound I-018]
23 | 1.9 nM | CCN1C(=O)c2c(O)c(=O)c(C(=O)NCc3cccc(Cl)c3F)cn2[C@H]2CCCC[C@H]21 [Compound I-024]
24 | 2.5 nM | CCN1C(=O)c2c(O)c(=O)c(C(=O)NCc3cccc(Cl)c3F)cn2[C@H]2C[C@@H](COC)C[C@H]21 [Compound I-015]
25 | 0.7 nM | CCN1C(=O)c2c(O)c(=O)c(C(=O)NCc3cccc(Cl)c3F)cn2[C@H]2CCCC(F)(F)[C@H]21 [Compound I-007]
26 | 8.2 nM | CCN1C(=O)c2c(O)c(=O)c(-c3nnc(Cc4ccc(F)cc4F)s3)cn2[C@H]2[C@@H]3CC[C@@H](C3)[C@H]21 [Compound I-019]
27 | 1.3 nM | CCN1C(=O)c2c(O)c(=O)c(C(=O)NCc3c(F)cc(F)cc3F)cn2[C@H]2CCCC[C@H]21 [Compound I-026]
28 | 0.63 nM | CCN1C(=O)c2c(O)c(=O)c(C(=O)NCc3c(F)cc(F)cc3F)cn2[C@@H]2[C@H]1CCCC2(F)F [Compound I-006]
29 | 1.5 nM | CCN1C(=O)c2c(O)c(=O)c(C(=O)NCc3c(F)cc(F)cc3F)cn2[C@H]2CC(F)(F)C[C@H]21 [Compound I-002]
30 | 5.2 nM | CCN1C(=O)c2c(O)c(=O)c(C(=O)NCc3c(F)cc(F)cc3F)cn2[C@H]2[C@@H]3CC[C@@H](C3)[C@H]21 [Compound I-010]
31 | 2.1 nM | CCN1C(=O)c2c(O)c(=O)c(C(=O)NCc3ccc(F)cc3F)cn2[C@H]2CCCC[C@H]21 [Compound I-025]
32 | 3.3 nM | CN1C(=O)c2c(O)c(=O)c(C(=O)NCc3nccc(Cl)c3F)cn2[C@H]2CCCC[C@H]21 [Compound I-004]
33 | 3.6 nM | CCN1C(=O)c2c(O)c(=O)c(-c3nnc(Cc4ccc(F)cc4F)s3)cn2[C@H]2CCCC(F)(F)[C@H]21 [Compound I-021]
34 | 2.6 nM | CCN1C(=O)c2c(O)c(=O)c(C(=O)NCc3c(F)cc(F)cc3F)cn2[C@H]2CCC[C@H]21 [Compound I-030]

Row | SMILES | EC50
35 | CCN1C(=O)c2c(O)c(=O)c(C(=O)NCc3cccc(Cl)c3F)cn2[C@H]2C[C@@H](COC)CC[C@H]21 [Compound I-014] | 3.8 nM

The molecules below were run on HIV mutant strains (E92Q/E138T/G140S/Q148H) (assay: Test Example 2: Resistance evaluation test (HeLa-CD4 cells, wild and mutant strain)). Settings: 3 days.
Assay type: cell-based
Method: Test Example 2: Resistance Evaluation Test
Serial dilutions of a test sample were prepared in a 96-well microplate (50 μL/well). 2.5×10^5 cells/mL of a HeLa-CD4 cell suspension was dispensed at 100 μL/well to the plate containing the test sample. Then, an HIV virus solution (wild strain and mutant strain) was dispensed at 50 μL/well. The plate was mixed with a plate mixer and cultured for 3 days in a CO2 incubator. The culture supernatant in each well was removed by suction. A cell lysis buffer was dispensed at 100 μL/well, and the plate was frozen in a freezer (−80° C.). The plate frozen in a freezer was thawed at room temperature, then mixed with a plate mixer, and centrifuged at 1,200 rpm for 5 minutes. Beta-Glo Reagent was dispensed at 20 μL/well to a 384-well microplate, 2 μL of the supernatant of each well (diluted as necessary) of the plate after centrifugation was added, and then the mixture was reacted at room temperature for about 30 minutes. The amount of luminescence of the plate after the reaction was measured with a microplate reader. A 50% HIV inhibitory concentration (EC50) was determined from a concentration-dependent curve using the following 4 parameter logistic curve fitting model. y=A+((B−A)/(1+((C/x)^D))) • A=minimum rate of inhibition (negative control, 0%) • B=maximum rate of inhibition (positive control, 100%) • C=compound concentration at an inflection point • D=slope coefficient • x=compound concentration • y=rate of inhibition (%)
The degree of resistance (fold change (FC)) of each mutant strain was calculated according to the following expression. • FC=EC50 of the mutant strain/EC50 of the wild strain (Results)

Row | SMILES | FC (fold change, degree of resistance) = EC50 of the mutant strain/EC50 of the wild strain
36 | CCN1C(=O)c2c(O)c(=O)c(C(=O)NCc3cccc(Cl)c3F)cn2[C@H]2C[C@@H](COC)CC[C@H]21 [Compound I-014] | 4.1
